Measurements: ChEMBL document CHEMBL4004838, “Design and synthesis of novel phenyl -1, 4-beta-carboline-hybrid molecules as potential anticancer agents” (Eur J Med Chem, 2017)

What follows are molecules tested on SK-MEL-5 (assay: Growth inhibition of human SK-MEL-5 cells assessed as cell growth at 10^-5 M incubated for 48 hrs by sulforhodamine B assay relative to control). Settings: SK-MEL-5, 48 h, read-out: Activity.
Type: functional

Structure (SMILES)	growth at 10 µM
c1ccc2c(c1)[nH]c1c(-c3ccc(-c4nccc5c4[nH]c4ccccc45)cc3)nccc12	79%

These molecules were tested on RXF 393 (assay: Growth inhibition of human RXF393 cells assessed as cell growth at 10^-5 M incubated for 48 hrs by sulforhodamine B assay relative to control). Settings: RXF 393, 48 h, read-out: Activity.
Type: functional

Structure (SMILES)	growth at 10 µM
c1ccc2c(c1)[nH]c1c(-c3ccc(-c4nccc5c4[nH]c4ccccc45)cc3)nccc12	111%

What follows are molecules tested on SW-620 (assay: Growth inhibition of human SW620 cells assessed as cell growth at 10^-5 M incubated for 48 hrs by sulforhodamine B assay relative to control). Settings: SW-620, 48 h, read-out: Activity.
Type: functional

Structure (SMILES)	growth at 10 µM
c1ccc2c(c1)[nH]c1c(-c3ccc(-c4nccc5c4[nH]c4ccccc45)cc3)nccc12	108%

The molecules below were run on IGROV-1 (assay: Growth inhibition of human IGROV1 cells assessed as cell growth at 10^-5 M incubated for 48 hrs by sulforhodamine B assay relative to control). Settings: IGROV-1, 48 h, read-out: Activity.
Type: functional

Structure (SMILES)	growth at 10 µM
c1ccc2c(c1)[nH]c1c(-c3ccc(-c4nccc5c4[nH]c4ccccc45)cc3)nccc12	88.8%

These molecules were tested on SK-OV-3 (assay: Growth inhibition of human SKOV3 cells assessed as cell growth at 10^-5 M incubated for 48 hrs by sulforhodamine B assay relative to control). Settings: SK-OV-3, 48 h, read-out: Activity.
Type: functional

Structure (SMILES)	growth at 10 µM
c1ccc2c(c1)[nH]c1c(-c3ccc(-c4nccc5c4[nH]c4ccccc45)cc3)nccc12	88%

The molecules below were run on M14 (assay: Growth inhibition of human M14 cells incubated for 48 hrs by sulforhodamine B assay). Settings: M14, 48 h, read-out: LC50 (the source's name).
Type: functional

Structure (SMILES)	CC50
c1ccc2c3c([nH]c2c1)C(c1ccc(C2NCCc4c2[nH]c2ccccc42)cc1)NCC3 (racemic)	4.65 µM

Same assay, conditions: M14, 48 h, read-out: pGI50 (converted)

Structure (SMILES)	GI50
c1ccc2c3c([nH]c2c1)C(c1ccc(C2NCCc4c2[nH]c2ccccc42)cc1)NCC3 (racemic)	0.407 µM

Same assay, conditions: M14, 48 h, read-out: pLC50 (the source's name) (converted)

Structure (SMILES)	CC50
c1ccc2c3c([nH]c2c1)C(c1ccc(C2NCCc4c2[nH]c2ccccc42)cc1)NCC3 (racemic)	4.68 µM

Same assay, conditions: M14, 48 h, read-out: pTGI (converted)

Structure (SMILES)	TGI
c1ccc2c3c([nH]c2c1)C(c1ccc(C2NCCc4c2[nH]c2ccccc42)cc1)NCC3 (racemic)	1.58 µM

These molecules were tested on UACC-257 (assay: Growth inhibition of human UACC257 cells assessed as cell growth at 10^-5 M incubated for 48 hrs by sulforhodamine B assay relative to control). Settings: UACC-257, 48 h, read-out: Activity.
Type: functional

Structure (SMILES)	growth at 10 µM
c1ccc2c(c1)[nH]c1c(-c3ccc(-c4nccc5c4[nH]c4ccccc45)cc3)nccc12	119%

Each molecule was assayed on SK-MEL-28 (assay: Growth inhibition of human SK-MEL-28 cells assessed as cell growth at 10^-5 M incubated for 48 hrs by sulforhodamine B assay relative to control). Settings: SK-MEL-28, 48 h, read-out: Activity.
Type: functional

Structure (SMILES)	growth at 10 µM
c1ccc2c(c1)[nH]c1c(-c3ccc(-c4nccc5c4[nH]c4ccccc45)cc3)nccc12	110%

What follows are molecules tested on PC-3 (assay: Growth inhibition of human PC3 cells assessed as cell growth at 10^-5 M incubated for 48 hrs by sulforhodamine B assay relative to control). Settings: PC-3, 48 h, read-out: Activity.
Type: functional

Structure (SMILES)	growth at 10 µM
c1ccc2c(c1)[nH]c1c(-c3ccc(-c4nccc5c4[nH]c4ccccc45)cc3)nccc12	84.2%

The molecules below were run on NCI-H522 (assay: Growth inhibition of human NCI-H522 cells assessed as cell growth at 10^-5 M incubated for 48 hrs by sulforhodamine B assay relative to control). Settings: NCI-H522, 48 h, read-out: Activity.
Type: functional

Structure (SMILES)	growth at 10 µM
c1ccc2c(c1)[nH]c1c(-c3ccc(-c4nccc5c4[nH]c4ccccc45)cc3)nccc12	84.7%

Each molecule was assayed on CAKI-1 (assay: Growth inhibition of human Caki1 cells assessed as cell growth at 10^-5 M incubated for 48 hrs by sulforhodamine B assay relative to control). Settings: CAKI-1, 48 h, read-out: Activity.
Type: functional

Structure (SMILES)	growth at 10 µM
c1ccc2c3c([nH]c2c1)C(c1ccc(C2NCCc4c2[nH]c2ccccc42)cc1)NCC3 (racemic)	-51%

What follows are molecules tested on A549 (assay: Growth inhibition of human A549/ATCC cells assessed as cell growth at 10^-5 M incubated for 48 hrs by sulforhodamine B assay relative to control). Settings: A549, 48 h, read-out: Activity.
Type: functional

Structure (SMILES)	growth at 10 µM
c1ccc2c(c1)[nH]c1c(-c3ccc(-c4nccc5c4[nH]c4ccccc45)cc3)nccc12	115%

What follows are molecules tested on M14 (assay: Growth inhibition of human M14 cells assessed as cell growth at 10^-5 M incubated for 48 hrs by sulforhodamine B assay relative to control). Settings: M14, 48 h, read-out: Activity.
Type: functional

Structure (SMILES)	growth at 10 µM
c1ccc2c(c1)[nH]c1c(-c3ccc(-c4nccc5c4[nH]c4ccccc45)cc3)nccc12	99.3%

These molecules were tested on KM12 (assay: Growth inhibition of human KM12 cells assessed as cell growth at 10^-5 M incubated for 48 hrs by sulforhodamine B assay relative to control). Settings: KM12, 48 h, read-out: Activity.
Type: functional

Structure (SMILES)	growth at 10 µM
c1ccc2c(c1)[nH]c1c(-c3ccc(-c4nccc5c4[nH]c4ccccc45)cc3)nccc12	99.1%

These molecules were tested on SNB-19 (assay: Growth inhibition of human SNB19 cells assessed as cell growth at 10^-5 M incubated for 48 hrs by sulforhodamine B assay relative to control). Settings: SNB-19, 48 h, read-out: Activity.
Type: functional

Structure (SMILES)	growth at 10 µM
c1ccc2c(c1)[nH]c1c(-c3ccc(-c4nccc5c4[nH]c4ccccc45)cc3)nccc12	106%

These molecules were tested on A498 (assay: Growth inhibition of human A498 cells assessed as cell growth at 1 uM incubated for 48 hrs by sulforhodamine B assay relative to control). Settings: A498, 48 h, read-out: Activity.
Type: functional

Structure (SMILES)	growth at 1 µM
c1ccc2c3c([nH]c2c1)C(c1ccc(C2NCCc4c2[nH]c2ccccc42)cc1)NCC3 (racemic)	65%

The molecules below were run on BT-549 (assay: Growth inhibition of human BT549 cells assessed as cell growth at 100 uM incubated for 48 hrs by sulforhodamine B assay relative to control). Settings: BT-549, 48 h, read-out: Activity.
Type: functional

Structure (SMILES)	growth at 100 µM
c1ccc2c3c([nH]c2c1)C(c1ccc(C2NCCc4c2[nH]c2ccccc42)cc1)NCC3 (racemic)	-90%

What follows are molecules tested on SF-268 (assay: Growth inhibition of human SF268 cells assessed as cell growth at 10^-5 M incubated for 48 hrs by sulforhodamine B assay relative to control). Settings: SF-268, 48 h, read-out: Activity.
Type: functional

Structure (SMILES)	growth at 10 µM
c1ccc2c(c1)[nH]c1c(-c3ccc(-c4nccc5c4[nH]c4ccccc45)cc3)nccc12	105%

What follows are molecules tested on HOP-62 (assay: Growth inhibition of human HOP62 cells assessed as cell growth at 10^-5 M incubated for 48 hrs by sulforhodamine B assay relative to control). Settings: HOP-62, 48 h, read-out: Activity.
Type: functional

Structure (SMILES)	growth at 10 µM
c1ccc2c(c1)[nH]c1c(-c3ccc(-c4nccc5c4[nH]c4ccccc45)cc3)nccc12	82.7%

What follows are molecules tested on MDA-MB-231 (assay: Growth inhibition of human MDA-MB-231 cells assessed as cell growth at 10^-5 M incubated for 48 hrs by sulforhodamine B assay relative to control). Settings: MDA-MB-231, 48 h, read-out: Activity.
Type: functional

Structure (SMILES)	growth at 10 µM
c1ccc2c(c1)[nH]c1c(-c3ccc(-c4nccc5c4[nH]c4ccccc45)cc3)nccc12	111%

These molecules were tested on OVCAR-5 (assay: Growth inhibition of human OVCAR5 cells incubated for 48 hrs by sulforhodamine B assay). Settings: OVCAR-5, 48 h, read-out: GI50.
Type: functional

Structure (SMILES)	GI50
c1ccc2c3c([nH]c2c1)C(c1ccc(C2NCCc4c2[nH]c2ccccc42)cc1)NCC3 (racemic)	1.8 µM

Same assay, conditions: OVCAR-5, 48 h, read-out: LC50 (the source's name)

Structure (SMILES)	CC50
c1ccc2c3c([nH]c2c1)C(c1ccc(C2NCCc4c2[nH]c2ccccc42)cc1)NCC3 (racemic)	9.65 µM

Same assay, conditions: OVCAR-5, 48 h, read-out: TGI

Structure (SMILES)	TGI
c1ccc2c3c([nH]c2c1)C(c1ccc(C2NCCc4c2[nH]c2ccccc42)cc1)NCC3 (racemic)	4.17 µM

Same assay, conditions: OVCAR-5, 48 h, read-out: pGI50 (converted)

Structure (SMILES)	GI50
c1ccc2c3c([nH]c2c1)C(c1ccc(C2NCCc4c2[nH]c2ccccc42)cc1)NCC3 (racemic)	1.82 µM

Same assay, conditions: OVCAR-5, 48 h, read-out: pLC50 (the source's name) (converted)

Structure (SMILES)	CC50
c1ccc2c3c([nH]c2c1)C(c1ccc(C2NCCc4c2[nH]c2ccccc42)cc1)NCC3 (racemic)	9.55 µM

Same assay, conditions: OVCAR-5, 48 h, read-out: pTGI (converted)

Structure (SMILES)	TGI
c1ccc2c3c([nH]c2c1)C(c1ccc(C2NCCc4c2[nH]c2ccccc42)cc1)NCC3 (racemic)	4.17 µM

These molecules were tested on EKVX (assay: Growth inhibition of human EKVX cells assessed as cell growth at 10^-5 M incubated for 48 hrs by sulforhodamine B assay relative to control). Settings: read-out: Activity.
Type: functional

Structure (SMILES)	growth at 10 µM
c1ccc2c(c1)[nH]c1c(-c3ccc(-c4nccc5c4[nH]c4ccccc45)cc3)nccc12	89.5%

The molecules below were run on A498 (assay: Growth inhibition of human A498 cells assessed as cell growth at 10^-5 M incubated for 48 hrs by sulforhodamine B assay relative to control). Settings: A498, 48 h, read-out: Activity.
Type: functional

Structure (SMILES)	growth at 10 µM
c1ccc2c(c1)[nH]c1c(-c3ccc(-c4nccc5c4[nH]c4ccccc45)cc3)nccc12	145%

The molecules below were run on MCF7 (assay: Growth inhibition of human MCF7 cells assessed as cell growth at 10^-5 M incubated for 48 hrs by sulforhodamine B assay relative to control). Settings: MCF7, 48 h, read-out: Activity.
Type: functional

Structure (SMILES)	growth at 10 µM
c1ccc2c(c1)[nH]c1c(-c3ccc(-c4nccc5c4[nH]c4ccccc45)cc3)nccc12	88.4%

Each molecule was assayed on HCT-116 (assay: Growth inhibition of human HCT116 cells assessed as cell growth at 10^-5 M incubated for 48 hrs by sulforhodamine B assay relative to control). Settings: HCT-116, 48 h, read-out: Activity.
Type: functional

Structure (SMILES)	growth at 10 µM
c1ccc2c(c1)[nH]c1c(-c3ccc(-c4nccc5c4[nH]c4ccccc45)cc3)nccc12	88.2%

What follows are molecules tested on SF-539 (assay: Growth inhibition of human SF539 cells assessed as cell growth at 10^-5 M incubated for 48 hrs by sulforhodamine B assay relative to control). Settings: SF-539, 48 h, read-out: Activity.
Type: functional

Structure (SMILES)	growth at 10 µM
c1ccc2c(c1)[nH]c1c(-c3ccc(-c4nccc5c4[nH]c4ccccc45)cc3)nccc12	109%

Each molecule was assayed on SF-295 (assay: Growth inhibition of human SF295 cells assessed as cell growth at 10^-5 M incubated for 48 hrs by sulforhodamine B assay relative to control). Settings: SF-295, 48 h, read-out: Activity.
Type: functional

Structure (SMILES)	growth at 10 µM
c1ccc2c(c1)[nH]c1c(-c3ccc(-c4nccc5c4[nH]c4ccccc45)cc3)nccc12	105%

What follows are molecules tested on NCI-H460 (assay: Growth inhibition of human NCI-H460 cells assessed as cell growth at 10^-5 M incubated for 48 hrs by sulforhodamine B assay relative to control). Settings: NCI-H460, 48 h, read-out: Activity.
Type: functional

Structure (SMILES)	growth at 10 µM
c1ccc2c(c1)[nH]c1c(-c3ccc(-c4nccc5c4[nH]c4ccccc45)cc3)nccc12	103%

These molecules were tested on OVCAR-8 (assay: Growth inhibition of human OVCAR8 cells assessed as cell growth at 10^-5 M incubated for 48 hrs by sulforhodamine B assay relative to control). Settings: OVCAR-8, 48 h, read-out: Activity.
Type: functional

Structure (SMILES)	growth at 10 µM
c1ccc2c3c([nH]c2c1)C(c1ccc(C2NCCc4c2[nH]c2ccccc42)cc1)NCC3 (racemic)	-41.5%
c1ccc2c(c1)[nH]c1c(-c3ccc(-c4nccc5c4[nH]c4ccccc45)cc3)nccc12	111%

What follows are molecules tested on SN12C (assay: Growth inhibition of human SN12C cells assessed as cell growth at 10^-5 M incubated for 48 hrs by sulforhodamine B assay relative to control). Settings: read-out: Activity.
Type: functional

Structure (SMILES)	growth at 10 µM
c1ccc2c(c1)[nH]c1c(-c3ccc(-c4nccc5c4[nH]c4ccccc45)cc3)nccc12	94.5%

The molecules below were run on RPMI-8226 (assay: Growth inhibition of human RPMI8226 cells assessed as cell growth at 10^-5 M incubated for 48 hrs by sulforhodamine B assay relative to control). Settings: RPMI-8226, 48 h, read-out: Activity.
Type: functional

Structure (SMILES)	growth at 10 µM
c1ccc2c(c1)[nH]c1c(-c3ccc(-c4nccc5c4[nH]c4ccccc45)cc3)nccc12	97.4%
